According to publication PMC10391610, “Survivin prevents the polycomb repressor complex 2 from methylating histone 3 lysine 27” (iScience, 2023):

Biological target: T1, survivin (Homo sapiens, UniProt O15392)
T1 construct: transferred to the survivin1-142 construct used in the present study; His8 tag (pHIS8 vector, thrombin-cleavable); made in house; host or cells: E. coli BL21(DE3) star
Test: PEPperCHIP peptide microarray, survivin interaction
Assay type: binding
Details: 1 μg/mL survivin
Source text: We were looking for potential direct interactions between survivin and short peptide sequences originating from PRC2 subunits and other proteins involved in histone modifications based on the in vivo results. Therefore, we created a peptide microarray of overlapping peptides obtained from EZH2, EED, SUZ12, and JARID2 to investigate how survivin interacts with the activity of the PRC2 complex. These subunits form the core of PRC2, and the interaction of survivin with the PRC2 molecular scaffold indicates a potentially disruptive role for survivin in PRC2 function. The fluorescence signal generated by labeled survivin is compared in Figure 2 as a function of position along the polypeptide chain of PRC2 subunits. Figure S1 depicts the raw fluorescence images. Moreover, the microarray fluorescence intensities projected on the three-dimensional structure of the PRC2 core complex are shown in Figure 3. The whole dataset is deposited at the Zenodo data base.
The location of survivin on the peptide microarray was clearly correlated with the amino acid content of the peptide at 1 μg/mL survivin concentration. When evaluating how accurate the predictions were, one should keep in mind that the primary and higher-order structures of the peptide were not at all considered in this analysis. Mislabeling peptides is possible for multiple reasons. The smallest fluorescence signal was chosen as the limit of detection and photon-counting errors may cause weak interactions to be undetected at low fluorescence intensities. Moreover, if the fluorescence intensity of experimental duplicates varied by more than 40%, a peptide was classified as non-interacting even if the lack of reproducibility is ambiguous evidence for the lack of interaction. […] Reducing the number of hidden layer perceptrons from 100 (the default value) to 9 had no effect on the classifier’s performance. Even a 15 amino acid peptide segment composition gives a high degree of uniqueness and highly scalable intensity for survivin-peptide interaction. Survivin has a non-globular structure with no deep binding pockets.
A peptide microarray was designed using the protein sequences from: Cdk1 (P06493), KAT2A/GCN5 (Q92830), SPI1/PU1 (P17947), SUZ12 (Q15022), EED (O75530), JADE3 (Q92613), DIABLO/SMAC (Q9NR28), BOREALIN (Q53HL2), INCENP (Q9NQS7), SGOL1 (Q5FBB7), SGOL2 (Q562F6), EZH2 (Q15910), JARID2 (Q92833), Histone H3 (P68431), AURORAKB (Q96GD4), JADE1 (Q6IE81), JTB (O76095), EVI5 (O60447), RAN (P62826), USP9X (Q93008), C-IAP1 (Q13490), STAT3 (P40763), BRUCE/APOLLON (Q9NR09), XPO1 (O14980), CDX2 (Q99626), Msx2 (P35548), RBM15 (Q96T37), PHF21A (Q96BD5), PHF8 (Q9UPP1), DIDO (Q9BTC0), JADE2 (Q9NQC1) and HASPIN (Q8TF76). The Uniprot ID is shown in parenthesis. The protein sequences were divided into 15 amino acid long peptides with a 10 amino acid overlap. To investigate background interactions with the protein-derived peptides that could interfere with the main assays, one of the PEPperCHIP Peptide Microarrays (PEPperPRINT Gmbh) was pre-staining with the secondary 6x His Tag Antibody DyLight680 antibody at a dilution of 1:1000 and with the monoclonal anti-HA (12CA5)-DyLight800 control antibody at a dilution of 1:1000. Subsequent incubation of other peptide microarray copies with survivin at a concentration of 1 μg/ml in incubation buffer was followed by staining with the secondary 6x His Tag Antibody DyLight680 antibody (Rockland Immunochemicals, Pottstown, PA, USA) and the monoclonal anti-HA (12CA5)-DyLight800 control antibody (Rockland Immunochemicals, Pottstown, PA, USA). The read-out was performed by scanning intensities of 7/7 (red/green). As an internal quality control, HA and His tag control peptides were stained simultaneously to confirm assay quality and to facilitate grid alignment for data quantification. The LI-COR Odyssey Imaging System was used for read-out, and the PepSlide Analyzer was used for quantification of spot intensities and peptide annotation. […]

T1 sequence (O15392 whole entry): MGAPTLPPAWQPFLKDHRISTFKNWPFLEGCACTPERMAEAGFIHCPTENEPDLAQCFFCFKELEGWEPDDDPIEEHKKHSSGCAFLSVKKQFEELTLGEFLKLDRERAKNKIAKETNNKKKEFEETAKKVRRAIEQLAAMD

VELVNALGQYNDDDDDDDGD DPEEREEKQKDLEDHRDDKE [EZH2_172-211, PRC2-derived peptide, EZH2 residues 172–211, synthesized by Biomatik]
Average FI (%) (anti-His tag DyLight680 read-out, percentage of maximum fluorescence intensity units (64193) per peptide, 15-mer microarray peptides covering the residues): 71%
Integrated FI (in units of the maximum FI per peptide, 15-mer microarray peptides covering the residues): 4.28
survivin interaction / fluorescence on microarray (in words) (peptide microarray): high survivin-associated fluorescence intensity
